Square brackets hold non-standard residues; d marks the D form. Ends that are not written are not given here. Peptide text beside a SMILES is read from it. d(aIle) = CC[C@H](C)[C@@H](N)C(=O)O
Key:
B. subtilis [1] = test: Inhibition assay on solid medium (plate growth inhibition); type: cell-based, Bacillus subtilis; conditions: 200 µg of peptide spotted, 37°C, Fig. 5A
Protocol: An overnight culture of the bacterial strain to be assayed was freshly inoculated to sterile BHI liquid medium. After 4 hours of bacterial growth at 37°C, the medium was diluted to 1/1000 and inoculated into a soft agarose medium pre-heated at 42°C. The agarose medium containing bacteria was overlaid on a previously jellified sterile BHI agarose layer. 200 µg of peptide was spotted onto the plate and bacterial growth proceeded at 37°C.

B. subtilis [2] = test: Inhibition assay on liquid medium (OD at 600 nm); type: cell-based, Bacillus subtilis; conditions: for Growth of B. subtilis in liquid LB medium (bacterial growth inhibition): Fig. 5B, Fig. 8a
Protocol: (§1) An overnight culture of the bacterial strain to be assayed was freshly inoculated to sterile LB liquid medium. After 4 hours of bacterial growth at 37°C, the medium was diluted to 1/10,000 and inoculated into sterile liquid LB or BHI medium. Peptide solution was added (1/100) to a final concentration ranging from 0.01 to 100µM and OD at 600 nm was recorded continuously using a Tecan microplate reader (Infinite® 200 PRO series).

Streptococcus agalactiae = test: Inhibition assay on liquid medium (OD at 600 nm); type: cell-based; conditions: peptide at 100µM; Fig. 12
Protocol: as §1

Molecule: Ac-GLLDESQKLAKVNDLWYFVKSKENRWILGSGH (SEQ ID No 20) [YydF18-49, truncated form of YydF, residues 18 to 49, no modification (all L-amino acids)]
- Plate growth inhibition assay of B. subtilis (B. subtilis [1]): devoid of activity
- Growth of B. subtilis after addition of peptide at mid-exponential phase (cell density) (B. subtilis [2]; liquid LB medium, peptide added after 3 hours of growth, Fig. 9): a clear slow down followed by a decrease of the cell density

Molecule: CC[C@H](C)[C@@H](NC(=O)[C@H](Cc1c[nH]c2ccccc12)NC(=O)[C@H](CCCNC(=N)N)NC(=O)[C@H](CC(N)=O)NC(=O)[C@H](CCC(=O)O)NC(=O)[C@H](CCCCN)NC(=O)[C@H](CO)NC(=O)[C@H](CCCCN)NC(=O)[C@H](NC(=O)[C@H](Cc1ccccc1)NC(=O)[C@H](Cc1ccc(O)cc1)NC(=O)[C@H](Cc1c[nH]c2ccccc12)NC(=O)[C@H](CC(C)C)NC(=O)[C@H](CC(=O)O)NC(=O)[C@H](CC(N)=O)NC(=O)[C@@H](NC(=O)[C@H](CCCCN)NC(=O)[C@H](C)NC(=O)[C@H](CC(C)C)NC(=O)[C@H](CCCCN)NC(=O)[C@H](CCC(N)=O)NC(=O)[C@H](CO)NC(=O)[C@H](CCC(=O)O)NC(=O)[C@H](CC(=O)O)NC(=O)[C@H](CC(C)C)NC(=O)[C@H](CC(C)C)NC(=O)CNC(C)=O)C(C)C)C(C)C)C(=O)N[C@@H](CC(C)C)C(=O)NCC(=O)N[C@@H](CO)C(=O)NCC(=O)N[C@@H](Cc1c[nH]cn1)C(=O)O [YydF18-49DD, Ac-GLLDESQKLAKVNDLWYF{d-V}KSKENRW{d-I}LGSGH (SEQ ID No 20)] (Ac-GLLDESQKLAKVNDLWYF[dV]KSKENRW[d(aIle)]LGSGH-OH)
- Plate growth inhibition assay of B. subtilis (B. subtilis [1]): strong inhibition growth
- Growth of B. subtilis in liquid LB medium (bacterial growth inhibition) (B. subtilis [2]; liquid LB medium): bacterial growth inhibition
- Growth of B. subtilis in liquid LB medium (bacterial growth inhibition) (B. subtilis [2]; liquid LB medium, listed as epimerized peptide): strong and persistent inhibition

Molecule: YydF33-49DD: peptide of SEQ ID No 61 with the two epimerized residues D-Val36 and D-Ile44 (WYF[dV]KSKENRW[dI]LGSGH)
- Growth of Streptococcus agalactiae in liquid BHI medium (Streptococcus agalactiae): inhibited
- potency relative to the YydF18-49DD peptide (B. subtilis [2]; B. subtilis growth ratio, Fig. 8b&c): 100 times
- Growth of B. subtilis in liquid LB medium (bacterial growth inhibition) (B. subtilis [2]; liquid LB medium): inhibit bacterial growth

Molecule: WYFVKSQSNRWIVGSGH (SEQ ID No 65) (WYF[dV]KSQSNRW[dI]VGSGH) [Peptide-SP]
- Growth of Streptococcus agalactiae in liquid BHI medium (Streptococcus agalactiae): inhibitors
